In brackets after ≈: the same amount, converted by molar mass. Read-outs that look alike come from different tables or passages of the source. Where a SMILES comes first, the peptide text is derived from it. [ ]: non-standard residue; d: D form. The star is where a group is joined. d(aIle) = CC[C@H](C)[C@@H](N)C(=O)O; dDab = NCC[C@@H](N)C(=O)O; Octanoyl = CCCCCCCC(=O)*; Dab = NCC[C@H](N)C(=O)O; AEEA = NCCOCCOCC(=O)O
Experiments:
N. gonorrhoeae FA1090 [1] = conditions: microdilution in FB, ~5 × 10^4 CFU, 24 hr, 37°C, 5% CO2
Method: (§1) columns (ThermoFisher scientific). Activated mAb was added to 0.9 mg of Oct-TriA1 analogues (synthesised by ISCA Biochemicals, UK) and incubated at room temperature for 60 min. ADCs were dialysed using slide-A-Lyzer cassette (20K MWCO, ThermoFisher scientific) into PBS overnight at 4 °C […]
(§2) MALDI-TOF MS analysis for determination of intact mass mAbs or ADCs with a concentration of 1 mg/mL were acidified with 1% trifluoroacetic acid and mixed with Super DHB matrix, 1 μl was spotted onto an MTP Anchorchip 600/384. For every mAb, three sample spots were prepared from the same solution using three protocols advised by the manufacturer. MALDI-TOF measurements were performed on a Microflex LRF mass spectrometer, equipped with a 60Hz nitrogen laser at 337nm. Number of peptides conjugated was calculated using the MALDI-TOF molecular weights (MW) [MW = M+] of each ADC, the unconjugated antibody (mAb), and the molecular weights of Oct-TriA1 analogues using the following equation.
(§3) Number of peptides = MW ADC − MW mAb […]
(§4) Determination of Oct-TriA1 Minimum Inhibitory Concentration (MIC)
(§5) N. gonorrhoeae was resuspended in PBS to an ODA600 1.0, and ̴5 × 10^4 CFU added to wells of a microdilution plate containing dilutions of antimicrobials in FB. Plates were incubated for 24 hr at […]
(§6) 37°C, in 5% CO2 then 10 μl aliquots plated onto GCB agar. The MIC was defined as the lowest concentration of an antimicrobial that prevented bacterial growth. […]
(§7) Peptide concentration in ADC preparations
(§8) Peptide concentrations for ADCs were calculated from the antibody concentration, the drug-to-antibody ratio (DAR), and the peptide molecular weight using the following formula:
(§9) Conc. peptide (µg/mL) = Conc. ADC (µg/mL) × DAR x MWpeptide (Da) […]
(§10) Where Conc. ADC is the ADC/ mAb concentration, MWADC is the mAb molecular weight (150 kDa), MWpeptide is the peptide molecular weight and DAR is the average number of peptides per conjugate.
(§11) This formula was used to convert ADC concentrations to peptide concentrations for all assays. […]

[2] = test system: N. gonorrhoeae FA1090ΔIgAP; conditions: microdilution in FB, ~5 × 10^4 CFU, 24 hr, 37°C, 5% CO2
Method: as §1, §2, §3, §4, §5, §6, §7, §8, §9, §10, §11

[3] = test system: N. gonorrhoeae FA1090ΔmtrE; conditions: microdilution in FB, ~5 × 10^4 CFU, 24 hr, 37°C, 5% CO2
Method: as §1, §2, §3, §4, §5, §6, §7, §8, §9, §10, §11

N. gonorrhoeae MS11 = conditions: microdilution in FB, ~5 × 10^4 CFU, 24 hr, 37°C, 5% CO2
Method: as §1, §2, §3, §4, §5, §6, §7, §8, §9, §10, §11

N. gonorrhoeae MS11ΔIgAP = conditions: microdilution in FB, ~5 × 10^4 CFU, 24 hr, 37°C, 5% CO2
Method: as §1, §2, §3, §4, §5, §6, §7, §8, §9, §10, §11

N. gonorrhoeae MS11ΔmtrE = conditions: microdilution in FB, ~5 × 10^4 CFU, 24 hr, 37°C, 5% CO2
Method: as §1, §2, §3, §4, §5, §6, §7, §8, §9, §10, §11

N. gonorrhoeae WHO F = conditions: microdilution in FB, ~5 × 10^4 CFU, 24 hr, 37°C, 5% CO2, lowest concentration preventing growth
Method: as §1, §2, §3, §4, §5, §6, §7, §8, §9, §10, §11

N. gonorrhoeae WHO G = conditions: microdilution in FB, ~5 × 10^4 CFU, 24 hr, 37°C, 5% CO2
Method: as §1, §2, §3, §4, §5, §6, §7, §8, §9, §10, §11

N. gonorrhoeae WHO K = conditions: microdilution in FB, ~5 × 10^4 CFU, 24 hr, 37°C, 5% CO2
Method: as §1, §2, §3, §4, §5, §6, §7, §8, §9, §10, §11

N. gonorrhoeae WHO L = conditions: microdilution in FB, ~5 × 10^4 CFU, 24 hr, 37°C, 5% CO2
Method: as §1, §2, §3, §4, §5, §6, §7, §8, §9, §10, §11

N. gonorrhoeae WHO M = conditions: microdilution in FB, ~5 × 10^4 CFU, 24 hr, 37°C, 5% CO2
Method: as §1, §2, §3, §4, §5, §6, §7, §8, §9, §10, §11

N. gonorrhoeae WHO N = conditions: microdilution in FB, ~5 × 10^4 CFU, 24 hr, 37°C, 5% CO2
Method: as §1, §2, §3, §4, §5, §6, §7, §8, §9, §10, §11

N. gonorrhoeae WHO O = conditions: microdilution in FB, ~5 × 10^4 CFU, 24 hr, 37°C, 5% CO2
Method: as §1, §2, §3, §4, §5, §6, §7, §8, §9, §10, §11

N. gonorrhoeae WHO P = conditions: microdilution in FB, ~5 × 10^4 CFU, 24 hr, 37°C, 5% CO2
Method: as §1, §2, §3, §4, §5, §6, §7, §8, §9, §10, §11

[4] = test system: N. gonorrhoeae G97687 (MDR isolate); conditions: G97687, MDR isolate resistant to ESCs and azithromycin, microdilution in FB, 24 hr, 37°C, 5% CO2
Method: as §4, §5, §6, §7, §8, §9, §10, §11

human erythrocytes = assay: Hemolysis of human erythrocytes; assay type: cell-based; conditions: concentration of peptide or ADC that lyses 50% of erythrocytes; washed human blood 0.5%, 37°C, 1 hr, OD415; melittin 2.5 µM = 100%, PBS = 0%; n = 3
Method: For hemolysis, whole human blood (1 ml; K2EDTA; Cambridge Bioscience) was washed in PBS then 0.5% added to an equal volume of peptides or ADCs in 96-well V-bottomed polypropylene plates and incubated at 37°C for 1 hr. Cells were pelleted at 1,000 × g for 10 min and the absorbance at OD415 measured. Positive (melittin, 2.5 µM, Merck Life Science) and negative (PBS) controls were normalised as 100 and 0% hemolysis, respectively. […]

HK-2 cells [5] = assay: LDH release cytotoxicity; assay type: cell-based, human; conditions: n = 3; for LDH (EC50) 4 h: 2 × 10^4 cells/well, LDH release OD490, 4 h
Method: HK-2 cells (CRL-2190™, Americab Type Culutre Collection (ATCC)), a proximal renal tubule cell(7), and End1/E6E7 (CRL-2615™, ATCC) upper cervical epithelial cells(8) were cultured in Keratinocyte Serum Free Medium (Invitrogen, Life Technologies Ltd.) with human recombinant EGF (5 ng ml-1) and bovine pituitary extract (0.05 mg ml−1) at 37°C in 5% CO2. Cells were seeded in 96-well plates (Corning, Polystyrene) at a density of 2 × 10^4 cells/well 24 hr prior; Triton-X-100 (0.1%) and Digitonin (30 μg ml−1) were used as controls. Lactate dehydrogenase (LDH) release was measured using the Biovision kit; the OD490 was assessed in a SpectraMax M5 plate reader. […]

HK-2 cells [6] = assay: MTT cell viability; assay type: cell-based, human; conditions: n = 3; for MTT (EC50) 4 h: MTT reduction OD570, 4 h
Method: HK-2 cells (CRL-2190™, Americab Type Culutre Collection (ATCC)), a proximal renal tubule cell(7), and End1/E6E7 (CRL-2615™, ATCC) upper cervical epithelial cells(8) were cultured in Keratinocyte Serum Free Medium (Invitrogen, Life Technologies Ltd.) with human recombinant EGF (5 ng ml-1) and bovine pituitary extract (0.05 mg ml−1) at 37°C in 5% CO2. […]
Cell viability was assessed by 3-(4,5-dimethylthiazol-2-yl)-2,5-diphenyl-2H-tetrazolium bromide (MTT) assay(9); 200 µl fresh cell media and 250 µg of MTT was added to cells. Plates were Incubated at 37 °C, 5% CO2 for 3 hr then 200 µl of DMSO was added to wells with 25 µl glycine buffer (0.1 M glycine, 0.1 M NaCl pH 10.5) and shaken at 1000 r.p.m. for 10 min. Absorbance was read at OD570 nm. Cell viability was calculated as (sample absorbance – cell free blank/media control absorbance) x100.

N. gonorrhoeae FA1090 [7] = assay: microbe, parasite or virus in culture; conditions: Neisseria gonorrhoeae
Method: 37°C, in 5% CO2 then 10 μl aliquots plated onto GCB agar. The MIC was defined as the lowest concentration of an antimicrobial that prevented bacterial growth.
Determination of N. gonorrhoeae resistance to Oct-TriA1
Single colonies of N. gonorrhoeae FA1090 were inoculated into 2 mL of FB media supplemented with 1% Vitox (Oxoid) and grown overnight. After 24 hours, 240 µl of a 1/ 5,000 dilution of FA1090 in 2x FB was added to a 48-well plate containing 2-fold dilutions of either Oct-TriA1-c (final concentration, 12.5 µg/ml to 0.2 µg/ml) or ciprofloxacin (final concentration, 16.4 to 0.001 µg/ml) in a total volume of 480
µl. Plates were incubated at 37 °C, 5% CO2 with shaking (180 rpm). After 24 hours, ODA600 of each well […]
to fresh media containing all concentrations of antimicrobials for a total of 35 days. […]

CCCCCCCC(=O)N[C@@H](C(=O)N[C@H](CCN)C(=O)NCC(=O)N[C@H](CO)C(=O)N[C@H](Cc1c[nH]c2ccccc12)C(=O)N[C@@H](CO)C(=O)N[C@@H](CCN)C(=O)N[C@H](CCN)C(=O)N[C@@H](Cc1ccccc1)C(=O)N[C@@H](CCC(=O)O)C(=O)N[C@H](C(=O)N[C@@H](C(=O)N[C@@H](C)C(=O)O)[C@@H](C)CC)C(C)C)C(C)C [Oct-TriA1, reference compound]
MIC (N. gonorrhoeae FA1090 [1]): 0.2 µg/mL (≈ 0.132 µM)
MIC [2]: 0.1 µg/mL (≈ 0.0658 µM)
MIC [3]: 0.1 µg/mL (≈ 0.0658 µM)
MIC (N. gonorrhoeae MS11): 0.78 µg/mL (≈ 0.513 µM)
MIC (N. gonorrhoeae MS11ΔIgAP): 0.39 µg/mL (≈ 0.256 µM)
MIC (N. gonorrhoeae MS11ΔmtrE): 0.2 µg/mL (≈ 0.132 µM)
MIC (N. gonorrhoeae WHO F): 0.2 µg/mL (≈ 0.132 µM)
MIC (N. gonorrhoeae WHO G): 0.39 µg/mL (≈ 0.256 µM)
MIC (N. gonorrhoeae WHO K): 0.78 µg/mL (≈ 0.513 µM)
MIC (N. gonorrhoeae WHO L): 0.2 µg/mL (≈ 0.132 µM)
MIC (N. gonorrhoeae WHO M): 0.39 µg/mL (≈ 0.256 µM)
MIC (N. gonorrhoeae WHO N): 0.39 µg/mL (≈ 0.256 µM)
MIC (N. gonorrhoeae WHO O): 0.39 µg/mL (≈ 0.256 µM)
MIC (N. gonorrhoeae WHO P): 0.39 µg/mL (≈ 0.256 µM)
MIC [4]: 0.2 µg/mL (≈ 0.132 µM)
MIC ([4]; listed as Oct-Tri1): 0.78 µg/mL (≈ 0.513 µM)
Hemolysis (HC50) (human erythrocytes): 39.4 µg/mL
LDH (EC50) 4 h (HK-2 cells [5]): 23.19 µg/mL
LDH (EC50) 24 h (HK-2 cells [5]; LDH release OD490, 24 h): 14.14 µg/mL
LDH (EC50) 48 h (HK-2 cells [5]; LDH release OD490, 48 h): <0.1 µg/mL
MTT (EC50) 4 h (HK-2 cells [6]): 21.15 µg/mL
MTT (EC50) 24 h (HK-2 cells [6]; MTT reduction OD570, 24 h): 7.93 µg/mL
MTT (EC50) 48 h (HK-2 cells [6]; MTT reduction OD570, 48 h): 8.07 µg/mL

O=C(O)c1cn(C2CC2)c2cc(N3CCNCC3)c(F)cc2c1=O [ciprofloxacin, reference compound]
MIC (N. gonorrhoeae FA1090 [7]; FA1090, 24 h, read-out: MIC at start of resistance evolution): 0.002 µg/mL (≈ 0.00604 µM)
MIC (N. gonorrhoeae FA1090 [7]; FA1090, read-out: MIC after 35 d of resistance evolution): 0.26 µg/mL (≈ 0.785 µM)

CCCCCCCC(=O)N[C@@H](C(=O)N[C@H](CCN)C(=O)NCC(=O)N[C@H](CO)C(=O)N[C@H](Cc1c[nH]c2ccccc12)C(=O)N[C@@H](CO)C(=O)N[C@@H](CCN)C(=O)N[C@H](CCN)C(=O)N[C@@H](Cc1ccccc1)C(=O)N[C@@H](CCC(=O)O)C(=O)N[C@H](C(=O)N[C@@H](C(=O)N[C@@H](C)C(=O)NCCOCCOCC(=O)N[C@@H](CC(C)C)C(=O)N1CCC[C@H]1C(=O)N[C@@H](CCCNC(=N)N)C(=O)N1CCC[C@H]1C(=O)N1CCC[C@H]1C(=O)N[C@@H](C)C(=O)N1CCC[C@H]1C(=O)N[C@H](C(=O)N[C@@H](Cc1ccccc1)C(=O)N[C@@H](CO)C(=O)NCCOCCOCC(=O)N[C@@H](CS)C(N)=O)C(C)C)[C@@H](C)CC)C(C)C)C(C)C [cl-Oct-TriA1] (Octanoyl-[dV][dDab]G[dS][dW]S[Dab][dDab]FEV[d(aIle)]A[AEEA]LPRPPAPVFS[AEEA]C-NH2)
LDH (EC50) 4 h (HK-2 cells [5]): >400 µg/mL
MTT (EC50) 4 h (HK-2 cells [6]): 315.43 µg/mL

— article PMC13439108, “An antibody–drug conjugate active against antibiotic-resistant Neisseria gonorrhoeae” (Proceedings of the National Academy of Sciences of the …, 2026)
